Experiment: xn = mol fraction of the nth substance listed
Settings: Fluid (supercritical or subcritical phases), Buoyancy - hydrostatic balance with magnetic suspension - one sinker

[Ar] [argon] + O=C=O
Settings | mass density [kg/m3]
298.12 K, 30871 kPa, x1 = 0.99 | 502.471
298.17 K, 30944 kPa, x1 = 0.95 | 514.698
298.18 K, 28957 kPa, x1 = 0.99 | 476.725
298.19 K, 10975 kPa, x1 = 0.99 | 187.045
298.19 K, 12973 kPa, x1 = 0.99 | 222.038
298.19 K, 14969 kPa, x1 = 0.99 | 256.759
298.19 K, 16969 kPa, x1 = 0.99 | 291.075
298.19 K, 18969 kPa, x1 = 0.99 | 324.674
298.19 K, 26962 kPa, x1 = 0.99 | 448.747
298.2 K, 20967 kPa, x1 = 0.99 | 357.351
298.2 K, 22966 kPa, x1 = 0.99 | 389.003
298.2 K, 24964 kPa, x1 = 0.99 | 419.491
298.22 K, 10976 kPa, x1 = 0.95 | 190.182
298.23 K, 12976 kPa, x1 = 0.95 | 226.201
298.23 K, 14974 kPa, x1 = 0.95 | 261.987
298.23 K, 16969 kPa, x1 = 0.95 | 297.274
298.23 K, 18970 kPa, x1 = 0.95 | 331.923
298.23 K, 20969 kPa, x1 = 0.95 | 365.576
298.23 K, 22968 kPa, x1 = 0.95 | 398.09
298.23 K, 24967 kPa, x1 = 0.95 | 429.349
298.23 K, 26965 kPa, x1 = 0.95 | 459.226
298.23 K, 28963 kPa, x1 = 0.95 | 487.701
323.2 K, 10978 kPa, x1 = 0.99 | 168.714
323.2 K, 24965 kPa, x1 = 0.99 | 375.34
323.2 K, 30955 kPa, x1 = 0.99 | 452.317
323.21 K, 14970 kPa, x1 = 0.99 | 230.302
323.21 K, 16971 kPa, x1 = 0.99 | 260.652
323.21 K, 18969 kPa, x1 = 0.99 | 290.39
323.21 K, 20969 kPa, x1 = 0.99 | 319.49
323.21 K, 22966 kPa, x1 = 0.99 | 347.807
323.21 K, 26962 kPa, x1 = 0.99 | 401.924
323.21 K, 28960 kPa, x1 = 0.99 | 427.589
323.22 K, 12973 kPa, x1 = 0.99 | 199.627
323.24 K, 24968 kPa, x1 = 0.95 | 382.594
323.24 K, 30958 kPa, x1 = 0.95 | 460.997
323.25 K, 16970 kPa, x1 = 0.95 | 265.1
323.25 K, 22969 kPa, x1 = 0.95 | 354.46
323.25 K, 28963 kPa, x1 = 0.95 | 435.856
323.26 K, 10976 kPa, x1 = 0.95 | 170.993
323.26 K, 12974 kPa, x1 = 0.95 | 202.641
323.26 K, 14973 kPa, x1 = 0.95 | 234.077
323.27 K, 18969 kPa, x1 = 0.95 | 295.579
323.27 K, 20973 kPa, x1 = 0.95 | 325.456
323.27 K, 26965 kPa, x1 = 0.95 | 409.68
348.21 K, 14972 kPa, x1 = 0.99 | 209.619
348.21 K, 16970 kPa, x1 = 0.99 | 236.897
348.21 K, 18972 kPa, x1 = 0.99 | 263.764
348.22 K, 20972 kPa, x1 = 0.99 | 290.057
348.22 K, 30956 kPa, x1 = 0.99 | 411.615
348.23 K, 28960 kPa, x1 = 0.99 | 388.704
348.24 K, 26963 kPa, x1 = 0.99 | 365.062
348.25 K, 10977 kPa, x1 = 0.99 | 154.064
348.25 K, 12974 kPa, x1 = 0.99 | 181.967
348.25 K, 24966 kPa, x1 = 0.99 | 340.708
348.25 K, 30958 kPa, x1 = 0.95 | 418.385
348.26 K, 22968 kPa, x1 = 0.99 | 315.675
348.28 K, 18972 kPa, x1 = 0.95 | 267.685
348.28 K, 20972 kPa, x1 = 0.95 | 294.53
348.28 K, 28962 kPa, x1 = 0.95 | 395.094
348.29 K, 22970 kPa, x1 = 0.95 | 320.729
348.29 K, 26966 kPa, x1 = 0.95 | 371.043
348.3 K, 10979 kPa, x1 = 0.95 | 155.9
348.3 K, 12976 kPa, x1 = 0.95 | 184.3
348.3 K, 14972 kPa, x1 = 0.95 | 212.437
348.3 K, 16971 kPa, x1 = 0.95 | 240.266
348.31 K, 24969 kPa, x1 = 0.95 | 346.237
